# According to ChEMBL document CHEMBL1156757, “Dihydroxyphenylisoindoline amides as orally bioavailable inhibitors of the heat shock protein 90 (hsp90) molecular chaperone” (J Med Chem, 2010):
# Tests used:
# [1] = AUC (0 to infinity) in rat at 2.5 mg/kg, iv; type: ADME, organism-based; parameters: time infinity, dose 2.5 mg/kg, route intravenous; settings: plasma
# [2] = tested on: Mus musculus; assay: Free plasma concentration in mouse at 100 mg/kg, po after 1 hr; type: ADME, organism-based; parameters: dose 100 mg/kg, route oral; settings: in vivo
# [3] = tested on: Mus musculus; assay: Free plasma concentration in mouse at 100 mg/kg, ip after 4 hrs; type: ADME, organism-based; parameters: dose 100 mg/kg, route intraperitoneal; settings: in vivo
# [4] = biological target: Heat shock protein HSP90 (Homo sapiens, UniProt P07900+P08238)
# [5] = tested on: Mus musculus; assay: Free plasma concentration in mouse at 100 mg/kg, po after 4 hrs; type: ADME, organism-based; parameters: dose 100 mg/kg, route oral; settings: in vivo
# [6] = tested on: Liver microsomes; assay: Hepatic clearance in rat liver microsomes […]; type: ADME, Microsome
# [7] = Half life in mouse at 100 mg/kg, po; type: ADME, organism-based; parameters: dose 100 mg/kg, route oral; settings: in vivo
# [8] = tested on: Mus musculus; assay: Free plasma concentration in mouse at 20 mg/kg, iv after 1 hr; type: ADME, organism-based; parameters: dose 20 mg/kg, route intravenous; settings: in vivo
# [9] = Oral bioavailability in rat; type: ADME, organism-based; settings: in vivo
# [10] = tested on: Mus musculus; assay: Free plasma concentration in mouse at 20 mg/kg, iv after 4 hrs; type: ADME, organism-based; parameters: dose 20 mg/kg, route intravenous; settings: in vivo
# [11] = Half life in mouse at 20 mg/kg, iv; type: ADME, organism-based; parameters: dose 20 mg/kg, route intravenous; settings: in vivo
# [12] = tested on: Mus musculus; assay: Free plasma concentration in mouse at 100 mg/kg, ip after 1 hr; type: ADME, organism-based; parameters: dose 100 mg/kg, route intraperitoneal; settings: in vivo
# [13] = Half life in rat; type: ADME, organism-based; settings: in vivo
# [14] = Clearance in rat; type: ADME, organism-based; settings: in vivo
# [15] = Volume of distribution in rat; type: ADME, organism-based; settings: in vivo
# [16] = tested on: Liver microsomes; assay: Hepatic clearance in human liver microsomes […]; type: ADME, Microsome
# [17] = AUC (0 to infinity) in rat at 10 mg/kg, po; type: ADME, organism-based; parameters: time infinity, dose 10 mg/kg, route oral; settings: plasma
Structure (SMILES),IC50 [4],CLH [16],also measured
CCNC(=O)[C@H]1c2ccccc2CN1C(=O)c1cc(Cl)c(O)cc1O,0.3 µM,7 µL/min,AUC(0-inf) [1]: 1700 ng·h/mL; Cp(f) [2]: 810 nM; Cp(f) [3]: 410 nM; Cp(f) [5]: 330 nM; CLH [6]: 0.2 µL/min; half-life [7]: 8.3 h; Cp(f) [8]: 286 nM; bioavailability [9]: 20%; Cp(f) [10]: 76 nM; half-life [11]: 5.2 h; Cp(f) [12]: 16000 nM; half-life [13]: 5.2 h; clearance [14]: 23.3 mL/min/kg; Vd [15]: 3.3 L/kg; AUC(0-inf) [17]: 1300 ng·h/mL
O=C(NC1CCCCC1)[C@H]1CCCN1C(=O)c1cc(Cl)c(O)cc1O,–,9 µL/min,–
O=C(NCc1ccccc1)C1c2ccccc2CN1C(=O)c1cc(Cl)c(O)cc1O (stereo unspecified),0.7 µM,25 µL/min,–
CCCNC(=O)C1c2ccccc2CN1C(=O)c1cc(Cl)c(O)cc1O (stereo unspecified),–,9 µL/min,–
CN(C)C(=O)[C@H]1CCCN1C(=O)c1cc(Cl)c(O)cc1O,–,< 7 µL/min,–
CNC(=O)C1c2ccccc2CN1C(=O)c1cc(Cl)c(O)cc1O (stereo unspecified),1.7 µM,< 2 µL/min,–
Cc1ccccc1[C@H]1CCCN1C(=O)c1cc(Cl)c(O)cc1O,1 µM,129 µL/min,–
O=C(c1cc(Cl)c(O)cc1O)N1CCCC1,–,56 µL/min,–
O=C([C@H]1CCCN1C(=O)c1cc(Cl)c(O)cc1O)N1CCCC1,–,< 9 µL/min,–
O=C([C@H]1c2ccccc2CN1C(=O)c1cc(Cl)c(O)cc1O)N1CCCC1,0.6 µM,11 µL/min,AUC(0-inf) [1]: 2100 ng·h/mL; CLH [6]: 0.2 µL/min; bioavailability [9]: 35%; half-life [13]: 7.9 h; clearance [14]: 23.3 mL/min/kg; Vd [15]: 8.1 L/kg; AUC(0-inf) [17]: 2900 ng·h/mL
CCNC(=O)C1c2ccccc2CN1C(=O)c1cc(Cl)c(O)cc1O (stereo unspecified),0.3 µM,4.7 µL/min,–
C=CCNC(=O)C1c2ccccc2CN1C(=O)c1cc(Cl)c(O)cc1O (stereo unspecified),1.5 µM,8.5 µL/min,–
CN(C)C(=O)C1c2ccccc2CN1C(=O)c1cc(Cl)c(O)cc1O (stereo unspecified),1.5 µM,2.4 µL/min,–
O=C(C1c2ccccc2CN1C(=O)c1cc(Cl)c(O)cc1O)N1CCCC1 (stereo unspecified),0.6 µM,2 µL/min,–
CO[C@H]1/C=C\C=C(/C)C(=O)NC2=CC(=O)C(NCCN(C)C)=C(C[C@@H](C)C[C@H](OC)[C@H](O)[C@@H](C)/C=C(\C)[C@@H]1OC(N)=O)C2=O [ALVESPIMYCIN],–,< 3 µL/min,–
